# Results taken from ChEMBL document CHEMBL1944545, “Discovery of novel selective inhibitors for EGFR-T790M/L858R” (Bioorg Med Chem Lett, 2012).
# Legend:
# A549 = experiment: Antiproliferative activity against human A549 cells over-expressing EGFR gene after 72 hrs by SRB assay; type: functional, cell-based; conditions: A549, 72 h
# NCI-H1975 = experiment: Antiproliferative activity against human NCI-H1975 cells over-expressing EGFR mutant gene after 72 hrs by SRB assay; type: functional, cell-based; conditions: NCI-H1975, 72 h
# A-431 = experiment: Antiproliferative activity against human A431 cells over-expressing EGFR gene after 72 hrs by SRB assay; type: functional, cell-based; conditions: A-431, 72 h
# [1] = molecular target: Epidermal growth factor receptor (Homo sapiens, UniProt P00533); experiment: Inhibition of wild-type EGFR expressed using baculovirus expression system by ELISA
# Epidermal growth factor receptor (Homo sapiens, UniProt P00533), sequence (P00533 whole entry): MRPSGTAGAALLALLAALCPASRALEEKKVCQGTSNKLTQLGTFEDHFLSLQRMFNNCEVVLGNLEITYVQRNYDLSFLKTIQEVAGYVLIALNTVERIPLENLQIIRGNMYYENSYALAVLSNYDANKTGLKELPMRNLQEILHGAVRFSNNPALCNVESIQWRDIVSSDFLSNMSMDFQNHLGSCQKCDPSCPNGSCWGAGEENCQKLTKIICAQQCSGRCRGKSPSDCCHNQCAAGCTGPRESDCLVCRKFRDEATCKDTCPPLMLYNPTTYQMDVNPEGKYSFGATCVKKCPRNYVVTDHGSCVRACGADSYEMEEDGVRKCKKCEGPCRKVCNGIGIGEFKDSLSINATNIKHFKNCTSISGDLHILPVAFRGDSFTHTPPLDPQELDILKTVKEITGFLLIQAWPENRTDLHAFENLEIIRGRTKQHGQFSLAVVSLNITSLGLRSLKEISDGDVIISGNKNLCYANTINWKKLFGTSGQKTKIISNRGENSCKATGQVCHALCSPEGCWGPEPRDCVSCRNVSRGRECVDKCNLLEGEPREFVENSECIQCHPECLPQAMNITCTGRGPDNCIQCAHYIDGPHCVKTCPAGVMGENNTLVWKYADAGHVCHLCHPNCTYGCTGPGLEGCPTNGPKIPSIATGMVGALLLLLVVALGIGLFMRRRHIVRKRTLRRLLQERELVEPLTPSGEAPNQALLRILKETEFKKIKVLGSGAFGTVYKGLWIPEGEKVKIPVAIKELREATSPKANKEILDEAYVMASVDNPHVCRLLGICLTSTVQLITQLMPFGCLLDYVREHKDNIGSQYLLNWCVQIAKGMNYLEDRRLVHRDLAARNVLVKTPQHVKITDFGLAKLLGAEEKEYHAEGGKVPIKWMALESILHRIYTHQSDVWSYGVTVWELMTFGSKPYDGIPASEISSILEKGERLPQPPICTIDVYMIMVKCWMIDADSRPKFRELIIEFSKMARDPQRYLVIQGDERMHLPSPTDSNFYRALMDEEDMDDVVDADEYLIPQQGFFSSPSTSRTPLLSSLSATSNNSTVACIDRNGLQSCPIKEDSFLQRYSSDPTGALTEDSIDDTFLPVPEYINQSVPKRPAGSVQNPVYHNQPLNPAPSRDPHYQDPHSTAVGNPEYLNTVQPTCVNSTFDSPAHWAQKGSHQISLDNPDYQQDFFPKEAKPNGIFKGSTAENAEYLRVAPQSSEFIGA
# [2] = molecular target: Epidermal growth factor receptor (Homo sapiens, UniProt P00533, L858R/T790M); experiment: Inhibition of EGFR T790M/L858R mutant expressed using baculovirus expression system by ELISA
# Epidermal growth factor receptor (Homo sapiens, UniProt P00533, L858R/T790M), sequence (P00533 25-1210 T790M/L858R limits assumed): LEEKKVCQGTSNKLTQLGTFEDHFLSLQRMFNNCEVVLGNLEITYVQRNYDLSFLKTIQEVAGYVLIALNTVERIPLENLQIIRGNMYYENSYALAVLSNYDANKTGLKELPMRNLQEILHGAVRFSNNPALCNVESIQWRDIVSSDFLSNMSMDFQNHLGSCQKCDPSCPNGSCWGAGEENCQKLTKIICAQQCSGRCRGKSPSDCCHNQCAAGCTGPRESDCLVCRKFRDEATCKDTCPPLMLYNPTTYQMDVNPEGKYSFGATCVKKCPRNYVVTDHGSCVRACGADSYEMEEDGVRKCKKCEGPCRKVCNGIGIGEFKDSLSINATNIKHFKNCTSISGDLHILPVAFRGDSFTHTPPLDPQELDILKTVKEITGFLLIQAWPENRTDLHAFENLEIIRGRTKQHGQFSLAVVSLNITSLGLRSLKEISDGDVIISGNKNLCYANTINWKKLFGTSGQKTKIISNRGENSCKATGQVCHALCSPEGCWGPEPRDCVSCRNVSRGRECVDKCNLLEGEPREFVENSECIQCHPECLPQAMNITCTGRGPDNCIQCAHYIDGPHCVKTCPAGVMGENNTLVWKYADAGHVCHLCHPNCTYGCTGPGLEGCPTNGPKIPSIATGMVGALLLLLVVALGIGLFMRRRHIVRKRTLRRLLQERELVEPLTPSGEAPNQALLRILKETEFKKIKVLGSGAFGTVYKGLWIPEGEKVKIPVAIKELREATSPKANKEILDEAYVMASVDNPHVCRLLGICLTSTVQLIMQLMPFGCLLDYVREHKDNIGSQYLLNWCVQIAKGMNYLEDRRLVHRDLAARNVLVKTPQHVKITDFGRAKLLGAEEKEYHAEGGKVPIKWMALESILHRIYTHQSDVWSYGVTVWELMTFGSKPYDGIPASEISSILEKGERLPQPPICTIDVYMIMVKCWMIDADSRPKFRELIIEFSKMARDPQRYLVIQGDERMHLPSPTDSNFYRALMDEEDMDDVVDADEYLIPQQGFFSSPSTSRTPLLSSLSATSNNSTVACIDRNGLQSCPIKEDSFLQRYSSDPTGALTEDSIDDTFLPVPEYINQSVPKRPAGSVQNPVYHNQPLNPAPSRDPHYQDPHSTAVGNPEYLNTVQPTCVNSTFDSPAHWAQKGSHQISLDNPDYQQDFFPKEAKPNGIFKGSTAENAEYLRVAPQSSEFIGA
Compound,IC50 (A549),IC50 (NCI-H1975),IC50 (A-431),IC50 [1],IC50 [2]
COc1ccc(Nc2nc(Cl)nc(NCc3ccco3)n2)cc1,> 100 µM,> 100 µM,> 100 µM,> 100 µM,20.9 µM
Cc1ccc(-n2c(SCC(=O)Nc3ccccc3Cl)nc3sc(C)c(C)c3c2=O)cc1,92.8 µM,53.7 µM,> 100 µM,81.6 µM,> 100 µM
Cn1cc(NC(=O)/C=N/O)c(=O)n1-c1ccccc1,> 100 µM,> 100 µM,> 100 µM,> 100 µM,8.9 µM
COc1cccc2c1C(=O)c1c(O)ccc(O)c1C2=O,> 100 µM,89.4 µM,71.5 µM,4.3 µM,17.6 µM
Cn1c2ccccc2n2c(=S)[nH]nc12,> 100 µM,> 100 µM,> 100 µM,> 100 µM,22 µM
CC(=O)Nc1ccc(S(=O)(=O)Nc2nc3ccccc3nc2Nc2ccc(C(=O)O)cc2)cc1,> 100 µM,> 100 µM,> 100 µM,35.8 µM,23.5 µM
Cc1c(Cc2ccccc2)sc(NCC(=O)COc2ccc3ccccc3c2)c1C(N)=O,61.1 µM,51.7 µM,63.8 µM,> 100 µM,24.7 µM
O=C(NNC(=O)c1ncc(Cc2ccsc2)s1)Nc1ccccc1,> 100 µM,> 100 µM,> 100 µM,> 100 µM,40.9 µM
O=C(Nc1cccc(Br)c1)c1c(O)c2ccccc2[nH]c1=O,> 100 µM,> 100 µM,> 100 µM,> 100 µM,56.8 µM
CCc1ccc(C(=O)NNc2ccc(Cl)cc2C)cc1,> 100 µM,> 100 µM,> 100 µM,> 100 µM,65.6 µM
COc1ccc2c3oc(=O)cc(O)c3c(=O)n(C)c2c1,72.6 µM,> 100 µM,> 100 µM,76.4 µM,65.1 µM
C=CCn1c(N)c(C(=O)N/N=C/c2cccs2)sc1=S,> 100 µM,> 100 µM,> 100 µM,> 100 µM,66 µM
O=c1c2c(-c3ccccc3)c3c(nc2nc2[nH]nc(S)n12)-c1ccccc1CC3,> 100 µM,> 100 µM,> 100 µM,85.6 µM,> 100 µM
CCOC(=O)c1ccc(NC(=O)CSc2nnc(CNc3ccc(OC)cc3)n2-c2ccccc2)cc1,> 100 µM,> 100 µM,56.3 µM,92.4 µM,> 100 µM
CN(C)c1nc(N/N=C/c2cc(Br)c(O)c(Br)c2O)nc(Nc2ccc(F)cc2)n1,7.7 µM,10.5 µM,8 µM,25.9 µM,6.5 µM
O=C(CSc1nc(O)nc(-c2ccc(Cl)cc2)n1)Nc1ccc(Cl)cc1,42.9 µM,> 100 µM,> 100 µM,> 100 µM,13 µM
CNc1nc(N/N=C\c2ccc(OC)cc2)nc(Nc2ccccc2)n1,76.9 µM,> 100 µM,56 µM,> 100 µM,31 µM
COc1nc(NCCN2CCOCC2)nc(Nc2ccc(Cl)cc2)n1,> 100 µM,> 100 µM,> 100 µM,> 100 µM,1.5 µM
CNc1nc(N/N=C/c2ccc(O)cc2)nc(Nc2ccccc2)n1,> 100 µM,> 100 µM,47 µM,> 100 µM,30.7 µM
COc1cccc(Nc2ccnc(Nc3cccc(OC)c3)n2)c1,3.4 µM,4.1 µM,0.8 µM,7.7 µM,36.1 µM
COc1ccccc1Nc1ccnc(Nc2ccccc2OC)n1,51.2 µM,38.2 µM,35.1 µM,90.4 µM,> 100 µM
C=CC(=O)Nc1ccc2ncnc(Nc3ccc(OCc4cccc(F)c4)c(Cl)c3)c2c1 [ALLITINIB],6.8 µM,0.7 µM,0.2 µM,–,–
